Assay results: patent US9560848B2, “Method and compositions for biofouling deterrence” (Clemson University, priority 2008, dated 2017)

Key:
Oyster larvae [1] = conditions: Coon, Bonar et al 1986; cited from earlier work
[2] = tested on: cyprids of the barnacle Balanus amphitrite; format: in vivo
Procedure: Barnacle cyprids were challenged with 30-100 micro molar ranges of noradrenalin. Barnacle cyprids were monitored and assayed over period of 120 hours (5 days). Cyprid metamorphosis was imaged at 24, 48, 96, 120 hour intervals. Images were taken at each intervals and samples preserved for SEM analysis. On the last day of the experiments the metamorphosed barnacles were assayed for viability. The experiments were repeated 4 times with 3 replicates per experiment. […] Post NA treatment, either by flash induction or by incubating the cyprids in ASW containing NA. […] The onset of ecdysis was observed between 24 hr and 48 hr post NA treatment. Metamorphosing juvenile barnacles were seen encased in bivalve cyprid carapace. The pumping action of the thorax similar to beating of cirri was also observed (Glenner and Høeg 1993). […] Some ecdysing barnacles were still encased in cyprid carapaces while others had shed the bivalve carapace. The cyprids that had shed carapace were presumed to have ‘grown’ out of it as opposed to have shed carapace voluntarily as observed in untreated attached cyprids (Glenner and Høeg 1993). […] Ninety-six hours post NA treatment, the operculum with tergal and scutal plates is well demarcated from the wall plates. In contrast, control barnacles can be seen fully calcified with well recognizable wall and opercular shell plates at around 24-48 hr post settlement. Thus the NA treated cyprids took 96 hr to fully metamorphose and calcify but remained unattached and un-cemented to the substratum.
Exploration of surfaces by invertebrate larvae is an important step leading to attachment and metamorphosis into juveniles. Oyster pediveliger larvae and barnacle cyprid larvae investigate surfaces using exploratory structures bearing an array of sensory cells. The effect of the neurotransmitter noradrenaline (NA) was investigated on the cyprids of the barnacle Balanus amphitrite. 1 day old cyprids were challenged with micro-molar concentrations of NA ranging from […] and assayed over 5 days. […] Remnants of cyprid organs such as the antennules were clearly visible in metamorphosed juveniles. […] Cyprids are compared to oyster larvae to understand the effects of NA on the signal transduction cascades involved in larval settlement and to explore NAs potential as a natural fouling deterrent. Materials and Methods One day old cypris larvae of the B. amphitrite were challenged with […] of noradrenaline. Cyprids were challenged in two different ways. One group was flash challenged for 3 hours then washed with artificial sea water (ASW) and incubated in ASW free of NA for the remaining duration of the experiment. The second group was incubated with NA for 24 hours then washed and incubated in ASW for the remaining duration of the experiment. Barnacle cyprids were monitored and assayed over period of 120 hours (5 days). Cyprid metamorphosis was imaged at 24, 48, 96, 120 hour intervals. Images were taken at each intervals and samples preserved for SEM analysis. The cyprid larvae were imaged using, Zeiss discovery V12 stereo-microscope, Nikon AZ100 stereo-macrosope and the Hitachi-4800 field emission scanning electron microscope. On the last day of the experiments the metamorphosed barnacles were assayed for viability. Viability was ascertained by observing the movement of cirri and ability of the metamorphosed barnacles to feed normally. The experiments were repeated 4 times with 3 replicates per experiment.

Oyster larvae [3] = test: Treatment of oyster larvae with micromolar concentrations of noradrenalin; format: in vivo
Excerpt: Effect of Treatment of Oyster Larvae with Micromolar Concentrations of Noradrenalin

NCC(O)c1ccc(O)c(O)c1 (racemic) [NA, DL-noradrenaline]
swimming of NA treated oyster larvae (Oyster larvae [1]): stopped swimming and sank to the bottom of petri dishes | metamorphosis of treated cyprids ([2]; 30-100 micro molar NA): metamorphosed into adults | settling, attachment or cementation of cyprids ([2]; 30-100 micro molar NA, flash challenge 3 hours or 24 hours incubation, monitored 120 hours, listed as noradrenalin): prevented them from settling or attaching to a surface | time to fully metamorphose and calcify ([2]; NA treated cyprids, controls 24-48 hr post settlement): 96 h | swimming of cyprids post NA treatment ([2]; flash induction or incubation in ASW containing NA): stopped swimming and sank to the bottom | appearance of juvenile barnacles compared to controls ([2]; in vivo): appeared to be normal | onset of ecdysis post NA treatment ([2]; post NA treatment): 24 to 48 h | metamorphosis of treated oyster larvae (Oyster larvae [3]): metamorphose into adult oysters without cementation | settling behavior and cementation of oyster larvae (Oyster larvae [3]): complete disruption of the settling behavior and cementation | viability and development of treated oysters (Oyster larvae [3]): viable and develop normally into adults
